Source: a melting point compilation (Tetko et al.)

melting point | Structure (SMILES)
159 to 161 °C | O=C(O)CCc1nnc(-c2ccsc2)o1
57 to 59 °C | O=C(O)CSCc1ccc(Cl)cc1
79 to 81 °C | OCC1CNc2ccccc2C1 (stereo not drawn)
153 to 155 °C | Nc1cc(F)cc(S(N)(=O)=O)c1
182 to 184 °C | O=C(O)c1conc1-c1ccc(Cl)cc1
142 to 144 °C | O=C(O)c1occc1-c1ccccc1
219 to 221 °C | Nc1ccc(Cc2nc3ccccc3s2)cc1
121 to 123 °C | O=C(O)C1CCCN(c2nccs2)C1 (stereo not drawn)
110 to 112 °C | Cc1ccc(Oc2ccc(N)cc2Cl)c(Br)c1
165 to 167 °C | Cc1cc(/C=C(\C#N)C(=O)O)c(C)n1-c1ccccc1F
81 to 83 °C | CCOc1cc(Cl)ccc1C#N
152 to 154 °C | CSc1nc(C)cc(C(=O)O)n1
79 to 81 °C | Nc1ccc(OCc2cccnc2)cc1
210 to 212 °C | O=C(O)c1ccc(N2C(=O)CCC2=O)cc1
109 to 111 °C | O=C(O)c1cc(Cl)ccc1OC(F)F
87 to 89 °C | COc1cc(OC)c(NC(=O)OCC(F)(F)F)cc1Cl
111 to 113 °C | O=c1[nH]nc(-c2ccco2)o1
95 to 99 °C | CCCCNC(=O)CC(N)=NO
219 to 221 °C | Cc1cc(C(=O)O)c(N)cc1F
199 to 201 °C | Nc1cc(S(=O)(=O)N2CCOCC2)ccc1O
94 to 96 °C | CC(C)(C(=O)O)c1ccc(Cl)c(Cl)c1
176 to 178 °C | O=S1(=O)N=C2CCCCCN2C(c2ccncc2)N1 (stereo not drawn)
147 to 149 °C | Cc1cccc(Oc2ncccc2N)c1C
174 to 176 °C | CS(=O)(=O)Cc1nc(Cl)c(Br)c(Cl)n1
110 to 112 °C | CC(C)C1=NN(C)C(=O)C1
202 to 204 °C | COc1ccc(/C=C/C(=O)O)cc1S(=O)(=O)NC(C)C
95 to 97 °C | O=S(=O)(NCC1CC1)c1ccc(Cl)nc1
233 to 235 °C | Cc1cc(C(=O)O)c2c(C)noc2n1
49 to 51 °C | O=Cc1cccc(Br)c1OC(F)F

Second part, the compound before the results:

Structure (SMILES) | melting point
CS(=O)Cc1c(C(=O)O)sc2ccccc12 (stereo not drawn) | 183 to 185 °C
COc1ccnc(N2CCNCC2)c1 | 36 to 38 °C
N#CCC(=O)c1ccc(F)c(C(F)(F)F)c1 | 51 to 53 °C
O=C(CCl)c1ccc(N2CCOC2=O)cc1 | 167 to 169 °C
NC(=O)c1cc(N2CCCCC2)ccc1N | 168 to 170 °C
COc1ncc(Br)cc1CC(=O)O | 129 to 131 °C
NC(=O)c1ccc(C(=O)O)s1 | 317 to 319 °C
NS(=O)(=O)Cc1ccc(C(=O)O)cc1 | 275 to 277 °C
Nc1ccc(C(=O)N2CCCc3ccccc32)cc1 | 210 to 212 °C
CC(Cl)c1nnnn1-c1ccccc1 (stereo not drawn) | 95 to 97 °C
CC(=O)c1c[nH]c2cc(F)ccc12 | 222 to 224 °C
CCC1Cc2c(Br)cccc2C(=O)N1 (stereo not drawn) | 101 to 103 °C
N#CCOc1ccc(CBr)cc1 | 74 to 76 °C
O=C(O)c1cccc(S(=O)(=O)Nc2ccc(I)cc2)c1 | 260 to 262 °C
CN(C)c1ccc(C=C(C#N)C(=O)O)cc1 | 224 to 226 °C
Cn1[nH]c2c(c1=N)CCC2 | 134 to 136 °C
CS(=O)(=O)Nc1cc(C(=O)O)ccc1F | 250 to 252 °C
CC(=O)C(C#N)c1c(Cl)cccc1Cl (stereo not drawn) | 49 to 51 °C
Cc1cccc2c(Cl)ncnc12 | 131 to 133 °C
Nc1ccc(OCCO)cc1C(F)(F)F | 73 to 75 °C
OCCOC1CCNCC1 | 61 to 63 °C
NNc1ccc(-c2ccccc2)nn1 | 144 to 146 °C
CC(C)Oc1ccc(-c2nc(C(=O)O)cs2)cc1 | 203 to 205 °C
CC(C)(C)c1ccc(C(=O)N=C=S)cc1 | 33 to 35 °C
COC(=O)C1(N)CCS(=O)(=O)CC1 | 124 to 126 °C
COc1ccc(C=C[N+](=O)[O-])cc1Cl | 95 to 97 °C
Cc1nc(C(=O)O)nn1-c1nnc[nH]1 | 225 to 227 °C
CCC(O)c1ccc(O)cc1 (stereo not drawn) | 81 to 83 °C
Nc1ccccc1Sc1nncs1 | 109 to 111 °C
